For one test, the target named is D(2) dopamine receptor (Homo sapiens, UniProt P14416). Briefly: Displacement of [3H]-raclopride from human D2L receptor expressed in HEK293 cell membranes after 1 hr by Microbeta scintillation counting method.
Test [1] concerns the target 5-hydroxytryptamine receptor 7 (Homo sapiens, UniProt P34969). Briefly: Displacement of [3H]-5-CT from human 5HT7BR expressed in HEK293 cell membranes after 1 hr by Microbeta scintillation counting method.
For test [2], the target named is T1, Adrenergic receptor alpha-1 (Rattus norvegicus, UniProt P15823+P23944+P43140).
T1 sequence (P15823 whole entry): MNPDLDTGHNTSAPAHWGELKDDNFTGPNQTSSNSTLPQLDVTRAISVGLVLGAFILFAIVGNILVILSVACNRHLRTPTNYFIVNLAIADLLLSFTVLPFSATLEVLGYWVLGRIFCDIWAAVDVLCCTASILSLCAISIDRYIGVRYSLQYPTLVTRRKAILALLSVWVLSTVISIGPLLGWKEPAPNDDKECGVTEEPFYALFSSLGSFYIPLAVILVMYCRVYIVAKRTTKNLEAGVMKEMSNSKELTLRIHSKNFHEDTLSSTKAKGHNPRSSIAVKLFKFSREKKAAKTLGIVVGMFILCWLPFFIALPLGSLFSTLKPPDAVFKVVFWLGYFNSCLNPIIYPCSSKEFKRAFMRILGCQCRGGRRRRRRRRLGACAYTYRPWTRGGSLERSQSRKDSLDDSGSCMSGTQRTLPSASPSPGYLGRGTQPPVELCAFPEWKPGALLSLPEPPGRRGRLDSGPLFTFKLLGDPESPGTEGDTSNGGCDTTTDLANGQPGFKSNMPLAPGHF
T1 sequence (P23944 whole entry): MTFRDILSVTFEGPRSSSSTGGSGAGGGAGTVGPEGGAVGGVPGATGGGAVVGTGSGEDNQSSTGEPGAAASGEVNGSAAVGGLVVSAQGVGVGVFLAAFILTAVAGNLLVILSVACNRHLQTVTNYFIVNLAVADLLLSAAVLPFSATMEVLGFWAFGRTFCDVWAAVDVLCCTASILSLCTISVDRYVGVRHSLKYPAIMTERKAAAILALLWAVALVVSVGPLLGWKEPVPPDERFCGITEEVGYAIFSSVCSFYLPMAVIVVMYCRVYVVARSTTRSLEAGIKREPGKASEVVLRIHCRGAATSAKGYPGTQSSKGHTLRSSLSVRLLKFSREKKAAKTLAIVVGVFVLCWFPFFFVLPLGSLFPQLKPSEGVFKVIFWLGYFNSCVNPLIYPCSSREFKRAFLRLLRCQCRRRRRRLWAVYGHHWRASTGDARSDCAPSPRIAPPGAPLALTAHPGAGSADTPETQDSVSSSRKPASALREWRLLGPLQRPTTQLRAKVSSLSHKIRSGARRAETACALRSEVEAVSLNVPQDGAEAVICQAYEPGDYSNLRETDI
T1 sequence (P43140 whole entry): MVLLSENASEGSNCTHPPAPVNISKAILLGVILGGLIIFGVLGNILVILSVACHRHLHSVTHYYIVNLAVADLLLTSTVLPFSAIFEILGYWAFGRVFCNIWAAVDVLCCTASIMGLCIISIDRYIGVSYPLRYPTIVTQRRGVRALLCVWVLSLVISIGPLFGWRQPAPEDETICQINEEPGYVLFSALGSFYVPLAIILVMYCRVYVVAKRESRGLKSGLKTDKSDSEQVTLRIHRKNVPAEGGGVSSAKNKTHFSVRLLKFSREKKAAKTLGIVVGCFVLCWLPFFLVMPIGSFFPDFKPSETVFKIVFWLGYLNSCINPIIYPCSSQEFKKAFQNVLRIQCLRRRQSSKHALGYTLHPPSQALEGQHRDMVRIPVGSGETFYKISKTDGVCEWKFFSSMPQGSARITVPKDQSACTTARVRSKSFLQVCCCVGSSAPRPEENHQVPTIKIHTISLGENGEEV
Briefly: Displacement of [3H]-prazosin from alpha1-adrenergic receptor in rat brain cortex after 30 mins by Microbeta scintillation counting method.

Test [3] deals with T2, Adrenergic receptor alpha-2 (Rattus norvegicus, UniProt P22086+P19328+P22909).
T2 sequence (P22086 whole entry): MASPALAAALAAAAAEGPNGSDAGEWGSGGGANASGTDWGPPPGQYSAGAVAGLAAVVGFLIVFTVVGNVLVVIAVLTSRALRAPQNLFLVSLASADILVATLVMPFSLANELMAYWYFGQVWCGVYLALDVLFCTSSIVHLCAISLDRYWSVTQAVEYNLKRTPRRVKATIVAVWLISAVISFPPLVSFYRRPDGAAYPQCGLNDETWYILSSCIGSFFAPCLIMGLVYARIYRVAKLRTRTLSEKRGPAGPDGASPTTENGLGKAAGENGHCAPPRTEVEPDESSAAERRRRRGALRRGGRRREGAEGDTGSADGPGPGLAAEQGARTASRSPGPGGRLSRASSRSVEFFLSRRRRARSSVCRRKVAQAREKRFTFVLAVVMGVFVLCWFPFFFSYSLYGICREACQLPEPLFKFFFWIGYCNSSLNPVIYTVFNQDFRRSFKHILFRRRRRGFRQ
T2 sequence (P19328 whole entry): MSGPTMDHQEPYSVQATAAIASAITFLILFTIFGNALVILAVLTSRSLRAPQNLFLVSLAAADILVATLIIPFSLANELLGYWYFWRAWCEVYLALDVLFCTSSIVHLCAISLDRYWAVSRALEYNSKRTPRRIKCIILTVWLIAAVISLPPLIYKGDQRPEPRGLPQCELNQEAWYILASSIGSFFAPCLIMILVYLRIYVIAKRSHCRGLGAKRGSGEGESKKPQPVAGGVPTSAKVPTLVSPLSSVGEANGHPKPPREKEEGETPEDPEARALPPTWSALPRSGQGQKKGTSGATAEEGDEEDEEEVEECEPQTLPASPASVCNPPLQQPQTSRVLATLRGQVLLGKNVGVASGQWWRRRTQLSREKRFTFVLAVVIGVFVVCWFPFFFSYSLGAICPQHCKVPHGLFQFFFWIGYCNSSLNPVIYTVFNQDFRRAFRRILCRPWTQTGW
T2 sequence (P22909 whole entry): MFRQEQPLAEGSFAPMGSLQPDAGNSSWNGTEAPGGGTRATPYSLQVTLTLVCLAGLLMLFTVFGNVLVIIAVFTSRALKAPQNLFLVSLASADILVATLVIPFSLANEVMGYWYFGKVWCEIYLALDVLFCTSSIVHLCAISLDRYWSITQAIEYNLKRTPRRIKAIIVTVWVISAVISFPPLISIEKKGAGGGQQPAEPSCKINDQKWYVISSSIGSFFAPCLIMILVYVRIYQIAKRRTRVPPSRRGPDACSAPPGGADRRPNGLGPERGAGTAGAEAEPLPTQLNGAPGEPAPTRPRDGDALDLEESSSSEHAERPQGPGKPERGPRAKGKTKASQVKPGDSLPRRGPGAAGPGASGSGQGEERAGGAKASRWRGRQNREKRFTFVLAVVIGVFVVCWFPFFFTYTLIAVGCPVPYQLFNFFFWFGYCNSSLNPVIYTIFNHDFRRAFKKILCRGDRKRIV
Briefly: Displacement of [3H]-clonidine from alpha2-adrenergic receptor in rat brain cortex after 30 mins by Microbeta scintillation counting method.

Each structure is given as a SMILES string. Where only a bound is given, the exact number is not on record here.

Sequence of D(2) dopamine receptor (P14416 whole entry): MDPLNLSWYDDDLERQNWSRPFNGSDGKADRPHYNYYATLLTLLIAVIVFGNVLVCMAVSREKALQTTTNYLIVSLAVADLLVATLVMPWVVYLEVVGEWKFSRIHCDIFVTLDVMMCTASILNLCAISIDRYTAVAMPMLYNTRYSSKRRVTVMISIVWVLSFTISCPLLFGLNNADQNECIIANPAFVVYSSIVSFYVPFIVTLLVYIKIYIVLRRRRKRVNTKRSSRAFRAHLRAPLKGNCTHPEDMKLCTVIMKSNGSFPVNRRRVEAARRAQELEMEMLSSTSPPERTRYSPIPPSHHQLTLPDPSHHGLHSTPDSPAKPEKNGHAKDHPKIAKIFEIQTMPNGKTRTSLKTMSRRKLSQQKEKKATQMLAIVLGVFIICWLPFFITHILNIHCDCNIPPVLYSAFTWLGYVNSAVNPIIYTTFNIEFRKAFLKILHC
Sequence of 5-hydroxytryptamine receptor 7 (P34969 whole entry): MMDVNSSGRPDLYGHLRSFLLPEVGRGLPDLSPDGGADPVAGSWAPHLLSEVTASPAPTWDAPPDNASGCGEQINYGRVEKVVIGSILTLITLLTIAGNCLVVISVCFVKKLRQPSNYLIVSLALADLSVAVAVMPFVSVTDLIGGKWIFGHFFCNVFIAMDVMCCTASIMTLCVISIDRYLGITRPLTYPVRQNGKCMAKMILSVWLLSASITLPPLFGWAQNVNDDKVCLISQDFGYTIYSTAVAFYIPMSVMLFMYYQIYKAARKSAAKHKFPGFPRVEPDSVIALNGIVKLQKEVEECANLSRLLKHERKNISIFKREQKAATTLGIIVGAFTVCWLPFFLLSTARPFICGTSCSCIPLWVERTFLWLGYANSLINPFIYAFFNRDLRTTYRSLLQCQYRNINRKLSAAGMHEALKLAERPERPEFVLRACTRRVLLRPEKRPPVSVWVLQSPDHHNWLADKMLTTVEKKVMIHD

For `COc1ccccc1N1CCN(CC(O)CN2C(=O)NC(C)(c3ccc(Br)cc3)C2=O)CC1.Cl` (racemic), the Ki on D(2) dopamine receptor was 267 nM; in test [1], 10 nM; in test [2] it was 167 nM; in test [3], greater than 5000 nM.

As to `CC1(c2ccc(Cl)cc2)NC(=O)N(CC(O)CN2CCN(c3ccccc3C#N)CC2)C1=O.Cl` (racemic), the Ki is 1280 nM on D(2) dopamine receptor, 9 nM in test [1], 250 nM in test [2] and greater than 10000 nM in test [3].

With `CC1(c2ccc(Br)cc2)NC(=O)N(CC(O)CN2CCN(c3ccccc3C#N)CC2)C1=O.Cl` (racemic), the Ki on D(2) dopamine receptor is 506 nM; in test [1] it was 7 nM; in test [2] it was 200 nM; in test [3], greater than 5000 nM.

For the origin of these results see ChEMBL document CHEMBL4145534, “Computer-aided insights into receptor-ligand interaction for novel 5-arylhydantoin derivatives as serotonin 5-HT7 receptor agents with antidepressant activity” (Eur J Med Chem, 2018).
